# Where two headings read alike, the source gives them in different places.
# Tests used:
# [1] = molecular target: Yeast α-glucosidase enzyme; assay: α-Glucosidase inhibitory activity assay (PNPG hydrolysis); format: biochemical
# Procedure: (§1) Optical rotations were obtained with a Perkin-Elmer 341 polarimeter (Boston, MA, USA). UV spectra were measured on a Milton Roy Spectronic 300 Array spectrophotometer, and IR was recorded on a Perkin-Elmer FT-IR 1760x spectrophotometer (Boston, MA, USA). High-resolution electrospray ionization mass spectra (HR-ESI-MS) were recorded with a Bruker micro TOF mass spectrometer (Billerica, MA, USA). NMR spectra were obtained with a Bruker Avance DPX-300 FT-NMR spectrometer (Billerica, MA, USA). Vacuum liquid chromatography (VLC) and column chromatography (CC) were performed on silica gel 60 (Merck, 70–230 µm, Darmstadt, Germany), silica gel 60 (Merck, […]) or Sephadex LH-20 (Pharmacia, Piscataway, NJ, USA). Yeast α-glucosidase enzyme, p-nitrophenol-α-D-glucopyranoside, pancreatic lipase, and 4-methylumbelliferyl oleate were purchased from Sigma Chemical, Inc. (St. Louis, MO, USA), and acarbose from Fluka Chemical (Buchs, Switzerland).
# (§2) The assay was based on the capacity of the sample to inhibit the hydrolysis of p-nitrophenyl-α-D-glucoside (PNPG) by α-glucosidase to release p-nitrophenol (PNP), a yellow color agent that can be monitored at 405 nm. Briefly, 10 μL of sample solution and 40 μL of 0.1 unit/mL α-glucosidase were incubated at 37 °C for 10 min. Then, 50 μL of 2 mM PNPG was added, and the mixture was further incubated at 37 °C for 20 min. One hundred microliters of 1 mM Na2CO3 was added, and the progress of the enzyme inhibition was monitored by measuring the absorbance at 405 nm. Acarbose was used as a positive control.
# [2] = test system: Yeast α-glucosidase enzyme; assay: Kinetic study of α-glucosidase inhibition (Lineweaver-Burk and secondary plots); format: biochemical; conditions: for Mode of inhibition of α-glucosidase / Km: Lineweaver-Burk plot; for Ki: from secondary plot, read-out: α-Glucosidase inhibition constant (Ki); for Km: PNPG substrate, read-out: Michaelis-Menten constant, Km (x-axis intersection), α-glucosidase
# Procedure: as §2
# (§3) An enzyme kinetic analysis was performed based on the α-glucosidase or lipase inhibition assay as described above. The PNPG concentrations varied from 1 to 4 mM, and the 4-MUO concentrations varied from 0.063 to 1 mM in the absence or presence of the test compounds for kinetic assays of α-glucosidase and lipase, respectively. The inhibition mode was determined by double-reciprocal Lineweaver-Burk plot (1/V vs. 1/[S]). In order to estimate the Ki value, slopes of double-reciprocal lines were used to construct a secondary plot, and Ki was calculated from the line equation of the plot.
# [3] = molecular target: T1, lipase from porcine pancreas (Type II) (Sus scrofa, UniProt P00591); assay: Lipase inhibitory activity assay (4MUO substrate); format: biochemical
# T1 construct: lipase from porcine pancreas (Type II); purchased Sigma Chemical, Inc. (St. Louis, MO, USA); host or cells: porcine pancreas
# T1 sequence (P00591 1-450): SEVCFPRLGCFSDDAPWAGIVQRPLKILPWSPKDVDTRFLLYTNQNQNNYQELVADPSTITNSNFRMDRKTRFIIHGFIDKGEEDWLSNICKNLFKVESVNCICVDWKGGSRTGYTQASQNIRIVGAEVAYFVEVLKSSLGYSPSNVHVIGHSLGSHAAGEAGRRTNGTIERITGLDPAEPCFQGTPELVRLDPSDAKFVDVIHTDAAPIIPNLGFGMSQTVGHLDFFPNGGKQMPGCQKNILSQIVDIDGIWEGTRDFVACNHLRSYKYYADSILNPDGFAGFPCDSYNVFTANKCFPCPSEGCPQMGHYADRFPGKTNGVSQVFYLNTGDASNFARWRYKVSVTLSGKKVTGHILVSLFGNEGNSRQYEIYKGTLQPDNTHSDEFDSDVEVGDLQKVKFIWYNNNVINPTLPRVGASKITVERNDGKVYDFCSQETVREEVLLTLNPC
# Procedure: as §1
# (§4) The lipase inhibitory activity was assessed by measuring the amount of 4-methylumbelliferone (4MU), using 4-methylumbelliferyl oleate (4MUO) as substrate. The assay was modified from a previously reported method. In brief, 25 μL of a blank, plant extract vehicle, or a sample solution and 50 μL of 0.5 mM 4MUO in buffer consisting of 13 mM Tris-HCl, 150 mM NaCl, and 1.3 mM CaCl2 (pH 8.0), were mixed in 96-well microtiter plate. Twenty-five microliters of lipase from porcine pancreas (Type II), prepared at 0.5 mg/mL in the same buffer, was then added to start the enzyme reaction. After incubation at room temperature for 30 min, 100 μL of 0.1 M sodium citrate (pH 4.2) was added to stop the reaction. Fluorescence, corresponding to released 4MU, was then measured with excitation and emission wavelengths of 355 and 460 nm, respectively.
# [4] = molecular target: T1, lipase from porcine pancreas (Type II); assay: Kinetic study of lipase inhibition (Lineweaver-Burk and secondary plots); format: biochemical; conditions: for Mode of inhibition of lipase: Lineweaver-Burk plot; for Ki: from secondary plot
# Procedure: as §4, §3
# [5] = test system: high-fat-diet (HFD)-induced obesity; set-up: method as in PMID 22312299, PMID 21320266; conditions: mice; by activating AMPK; cited from earlier work
Molecule,IC50 [1] [µM],α-Glucosidase % Inhibition (at 20 µg/mL) [1] [%],inhibition at 20 µg/mL [3] [%],further results
"C[C@H]1O[C@H](O[C@H]2[C@H](O)[C@@H](O)[C@@H](O[C@H]3[C@H](O)[C@@H](O)C(O)O[C@@H]3CO)O[C@@H]2CO)[C@H](O)[C@@H](O)[C@@H]1N[C@H]1C=C(CO)[C@@H](O)[C@H](O)[C@H]1O (stereo partly shown) [Acarbose, reference compound]",1160 ± 23,,,IC50 ([1]; rounded value): 1200 µM; Mode of inhibition of α-glucosidase [2]: competitive; Ki [2]: 167 µM
"COc1cc(/C=C/c2ccccc2)oc(=O)c1 [Compound 8, 5,6-Dehydrokawain]",,9.5 ± 2.5,33.7 ± 1,
"COc1cc(O)c2c(c1)O[C@H](c1ccccc1)CC2=O [Compound 1, Pinostrobin]",,10.0 ± 2.9,7.9 ± 0.8,
"CCCCCCCCCCC[C@@H](C[C@@H]1OC(=O)[C@H]1CCCCCC)OC(=O)[C@H](CC(C)C)NC=O [Orlistat, reference compound]",,,,Mode of inhibition of lipase [4]: competitive
Alpinetin [Compound 11],,7.0 ± 2.0,,Lipase % Inhibition (at 20 µg/mL) ([3]; at 20 µg/mL): 8.0 ± 1.9%
"COc1cc(O)cc2c1C(=O)CC(c1ccc(O)cc1)O2 (stereo not shown) [Compound 15, 4′-7-Dihydroxy-5-methoxyflavanone]",,20.9 ± 2.1,44.7 ± 1.7,
"O=C(CC(c1ccccc1)c1c(O)cc2c(c1O)C(=O)CC(c1ccccc1)O2)c1c(O)cc(O)cc1O (stereo not shown) [Compound 13, de-O-methyl rotundaflavanochalcone]",1.3 ± 0.2,100.0 ± 0.1,80.5 ± 0.6,IC50 [3]: 10.6 ± 1.2 µM
"CC(C)=CCC/C(C)=C/CO [Compound 2, Geraniol]",,9.6 ± 4.0,30.6 ± 2,
"COc1cc(O)c(C(=O)CC(c2ccccc2)c2c(O)cc3c(c2O)C(=O)CC(c2ccccc2)O3)c(O)c1 (stereo not shown) [Compound 9, rotundaflavanochalcone]",2.4 ± 0.4,100.0 ± 0.0,69.1 ± 1.6,IC50 [3]: 25.8 ± 2.6 µM; Mode of inhibition of lipase [4]: non-competitive; Ki [4]: 3.55 µM; Mode of inhibition of α-glucosidase [2]: non-competitive; Km [2]: 470 µM; Ki [2]: 7.19 µM

# More lines, main results first:
IC50 [1] [µM],α-Glucosidase % Inhibition (at 20 µg/mL) [1] [%],inhibition at 20 µg/mL [3] [%],Molecule,further results
3.4 ± 0.9,100.0 ± 0.2,67.8 ± 1.3,"COc1cc(O)cc(O)c1C(=O)CC(c1ccccc1)c1c(O)cc2c(c1O)C(=O)CC(c1ccccc1)O2 (stereo not shown) [Compound 12, iso-rotundaflavanochalcone]",IC50 [3]: 30.1 ± 2.3 µM
7.5 ± 0.6,97.8 ± 0.8,75.2 ± 1.1,"COc1cc(O)cc(O)c1C(=O)C1C(CC=C(C)C)C(C)=CCC1c1ccccc1 (stereo not shown) [Compound 4, Isopanduratin A]",IC50 [3]: 15.1 ± 3.3 µM; Mode of inhibition of lipase [4]: mixed-type; Ki [4]: 5.79 µM
,19.8 ± 0.1,3.7 ± 1.3,"O=C1C[C@@H](c2ccccc2)Oc2cc(O)cc(O)c21 [Compound 5, Pinocembrin]",
,19.7 ± 0.9,7.7 ± 1.9,"COc1cc(O)cc(O)c1C(=O)/C=C/c1ccccc1 [Compound 6, Cardamonin]",
4.6 ± 0.4,98.5 ± 0.4,49.3 ± 2.7,"CC(C)=CC[C@@H]1C(C)=CC[C@@H](c2ccccc2)[C@@H]1C(=O)c1c(O)cc(O)cc1O [Compound 7, Hydroxypanduratin A]",Mode of inhibition of α-glucosidase [2]: non-competitive; Km [2]: 460 µM; Ki [2]: 4.03 µM
32 ± 2.2,88.1 ± 0.9,48.7 ± 3.5,"O=C(CCc1ccccc1)c1c(O)cc(O)cc1O [Compound 10, 2′,4′,6′-Trihydroxydihydrochalcone]",
,97.1 ± 0.5,70.9 ± 2,"COc1cc(O)cc(O)c1C(=O)/C=C/c1ccc(O)cc1 [Compound 14, 4,4′,6′-trihydroxy-2′-methoxychalcone]",
12.7 ± 1.3,94.7 ± 0.4,72.3 ± 0.1,"COc1cc(O)c(C(=O)[C@@H]2[C@H](CC=C(C)C)C(C)=CC[C@H]2c2ccccc2)c(O)c1 [Compound 3, Panduratin A]",Effect on high-fat-diet (HFD)-induced obesity [5]: attenuate high-fat-diet (HFD)-induced obesity; IC50 [3]: 17.1 ± 3.7 µM

# From PMC6150212, “New Biflavonoids with α-Glucosidase and Pancreatic Lipase Inhibitory Activities from Boesenbergia rotunda” (Molecules : A Journal of Synthetic Chemistry and Natural …, 2017)
